Test results: ChEMBL document CHEMBL3425403, “De novo design of caseinolytic protein proteases inhibitors based on pharmacophore and 2D molecular fingerprints” (Bioorg Med Chem Lett, 2015)

Test system: Staphylococcus aureus
Assay: Inhibition of Staphylococcus aureus caseinolytic protein protease using fluorogenic substrate assessed as residual activity at 10 uM after 15 mins

Activity	Structure (SMILES)
108%	O=C1OC[C@H]1CCc1ccccc1
1%	CCCCCCCCCC[C@@H]1C(=O)O[C@H]1CCCCCS(=O)(=O)CCC[N+](C)(C)C
36%	CCCCCCCCCC[C@@H]1C(=O)O[C@H]1CCCCS(=O)(=O)CCC[N+](C)(C)C
105%	C=CCCCCCCC[C@H]1C(=O)O[C@@H]1CCCCCCCCCCCNC(=O)OC(C)(C)C
103%	C=CCCCCCCCCC(=O)OC(C)(C)C
5%	CCCCCCCCCC[C@@H]1C(=O)O[C@H]1CCCCCS(=O)(=O)CCCN(C)C
8%	CCCCCCCCCC[C@H]1C(=O)O[C@@H]1CCCS(=O)(=O)CCCN(C)C
96%	C=CCCCCCCCCC(=O)OC
101%	C#CCCCOC(=O)NCCCCCCCC=C
0%	CCCCCCCCCC[C@@H]1C(=O)O[C@H]1CCCCSCCCN(C)C
0%	CCCCCCCCCC[C@@H]1C(=O)O[C@H]1CCCS(=O)(=O)CCCN(C)C
95%	C=CCCCCCCCC[C@H]1OC(=O)[C@@H]1CCCCCCCCCNC(=O)OC(C)(C)C
0%	C=CCCCCCCC[C@H]1C(=O)O[C@@H]1CCc1cccnc1
1%	CCCCCCCCCC[C@@H]1C(=O)O[C@H]1CCSCCCN(C)C
0%	CCCCCCCCCC[C@@H]1C(=O)O[C@H]1CCCS(=O)(=O)CCC[N+](C)(C)C
10%	CCCCCCCCCC[C@H]1C(=O)O[C@@H]1CCCCCS(=O)(=O)CCCN(C)C

Activity	Structure (SMILES)
1%	CCCCCCCCCC[C@@H]1C(=O)O[C@H]1CCS(=O)(=O)CCCN(C)C
9%	CCCCCCCCCC[C@H]1C(=O)O[C@@H]1CCCCCS(=O)(=O)CCC[N+](C)(C)C
13%	CCCCCCCCCC[C@H]1C(=O)O[C@@H]1CCCCS(=O)(=O)CCCN(C)C
1%	CCCCCCCCCC[C@@H]1C(=O)O[C@H]1CCCCCSCCCN(C)C
30%	C=CCCCCCCC[C@H]1C(=O)O[C@@H]1CCCCCNC(=O)c1ccc(N(C)C)cc1
7%	CCCCCCCCCC[C@H]1C(=O)O[C@@H]1CCCS(=O)(=O)CCC[N+](C)(C)C
40%	CCCCCCCCCC[C@@H]1C(=O)O[C@H]1CCCSCCCN(C)C
108%	O=C1OC[C@@H]1CCc1ccccc1
70%	C=CCCCCCCC[C@H]1C(=O)O[C@@H]1CCc1ccccc1
0%	CCCCCCCCCC[C@@H]1C(=O)O[C@H]1CCCCS(=O)(=O)CCCN(C)C
95%	C#CCCC[C@@H]1OC(=O)[C@H]1CCCCCCCCCCCC
95%	CCCCCCCCCCCC[C@H]1C(=O)O[C@@H]1CCc1ccccc1
11%	CCCCCCCCCC[C@H]1C(=O)O[C@@H]1CCSCCCN(C)C
100%	C#CCCCOC(=O)NCCCCC
9%	CCCCCCCCCC[C@H]1C(=O)O[C@@H]1CCCCS(=O)(=O)CCC[N+](C)(C)C
37%	CCCCCCCCCC[C@H]1C(=O)O[C@@H]1CCS(=O)(=O)CCCN(C)C
